In brackets after ≈: the same amount, converted by molar mass.
What was measured:
Type in all cases: cell-based
[1] = tested on: Pseudomonas aeruginosa K 407; conditions: Pseudomonas aeruginosa K407
Source text: (§1) In the indicator mutants, the synthesis of the respective siderophores, e.g. pyoverdin, pyochelin, enterobactin, aerobactin or yersiniabactin, or the biosynthesis of aromatic compounds, is blocked, or there is a lack of receptors for enterobactin, pyochelin or pyoverdin and for other important components for the bacterial transport of iron (e.g. the membrane proteins Cir, Fiu, FepA and TonB). Under conditions where there is a lack of iron, these mutants therefore cannot grow or can only grow to a very slight extent. In particular, the following indicator mutants were used: Pseudomonas aeruginosa PAO 6609, K 407, 690; E. coli AB 2847, Salmonella typhimurium enb-7, TA 270; Klebsiella pneumoniae KN 4401; Yersinia enterocolitica WAH; Proteus mirabilis 12 (wild); Proteus vulgaris 718 (wild) and Morganella morganii SBK3 (wild). […] The controls used were ferrioxamine E for the Pseudomonas strains, ferrioxamine G and enterobactin for the Salmonella strains, ferrichrome for the E. coli, Klebsiella and Y. enterocol. strains, and 3,4-dihydroxybenzylidene-2,4,6-trimethylaniline for Morganella morganii (see the above literature reference by R. Reissbrodt et al.).
(§2) The annotations + and (+) relate to non-specific promotion of growth.

[2] = tested on: Salmonella typhimurium TA 2700
Source text: as §1, §2

[3] = tested on: Proteus vulgaris 718 (wild)
Source text: as §1, §2

[4] = tested on: Morganella morganii SBK3 (wild)
Source text: as §1, §2

[5] = tested on: Proteus mirabilis 12 (wild)
Source text: as §1, §2

[6] = tested on: Salmonella typhimurium enb-7
Source text: as §1, §2

[7] = tested on: Pseudomonas aeruginosa 690
Source text: as §1, §2

[8] = tested on: Klebsiella pneumoniae KN 4401; conditions: Klebsiella KN 4401
Source text: as §1, §2

[9] = tested on: Pseudomonas aeruginosa PAO 6609
Source text: as §1, §2

[10] = tested on: Yersinia enterocolitica WAH; conditions: Y. enterocol. WAH
Source text: as §1, §2

E. coli AB 2847 = tested on: E. coli AB 2847
Source text: as §1, §2

[11] = tested on: Pseudomonas aeruginosa NCTC 10662; assay: Agar diffusion test; conditions: concentration 100 μg/ml; P. aeruginosa NCTC 10662
[12] = tested on: Pseudomonas aeruginosa KW 799 WT (wild type); assay: Agar diffusion test; conditions: concentration 100 μg/ml; P. aeruginosa KW799/WT
E. coli mutant KB4 ompF− = tested on: E. coli mutant KB4 ompF−
Source text: (§3) The efficacy against β-lactamase formers and against multi-resistant germs is therefore due to a new type of mechanism for overcoming the penetration resistance, by means of which the ratio of active ingredient to enzyme in the bacterial cell is influenced so that not all antibiotic molecules are inactivated before they reach their target.

E. coli mutant KB5 ompC− = tested on: E. coli mutant KB5 ompC−
Source text: as §3

[13] = tested on: Klebsiella pneumoniae SG 117; assay: Agar diffusion test; conditions: concentration 100 μg/ml
[14] = tested on: E. coli mutant BR185 tonB−
[15] = tested on: Stenotrophomonas maltophilia GN 12873; assay: Agar diffusion test; conditions: concentration 100 μg/ml
[16] = tested on: Pseudomonas aeruginosa ATCC 9027 (wild type); assay: Agar diffusion test; conditions: concentration 100 μg/ml; P. aeruginosa ATCC 9027
[17] = tested on: Pseudomonas aeruginosa Oxa6 (plasmid-coded β-lactamase); conditions: concentration 100 μg/ml; P. aeruginosa OXA 6
[18] = tested on: E. coli mutant PLB3268 ompF++; conditions: E. coli mutant PLB3268 ompF++ (ompF super-expressed)
Source text: as §3
PLB268: ompF- was super-expressed.

[19] = tested on: Salmonella gallinarum ATCC 9184; assay: microbe, parasite or virus in culture; conditions: Salmonella gallinarum ATCC9184
Description: (§4) The minimum inhibiting concentrations (MICs) were determined for the following bacterial strains: Pseudomonas aeruginosa NCTC 10701, NCTC 10662, SG 137, ATCC 27853, KW 799 WT and KW 799/61, E. coli DCO, DC2 and ATCC 25922, Serratia marcescens SG 621; Salmonella gallinarum ATCC 9184, Klebsiella pneumoniae ATCC 10031 and SG 117.

E. coli DC0 (wild type) = assay: Agar diffusion test; conditions: concentration 100 μg/ml
E. coli AB2847 tonB+ = tested on: E. coli AB2847 tonB+
[20] = tested on: Pseudomonas aeruginosa KW 799/61 (penetration mutant); conditions: concentration 100 μg/ml; P. aeruginosa KW799/61
[21] = tested on: E. coli DC2 (penetration mutant); conditions: concentration 100 μg/ml
[22] = tested on: Pseudomonas aeruginosa NPS1 (plasmid-coded β-lactamase); conditions: concentration 100 μg/ml; P. aeruginosa NPS 1
E. coli DC2 = assay: microbe, parasite or virus in culture
Description: as §4
(§5) With the test germs KW 799/WT and /61 of Pseudomonas and DCO and DC2 of E. coli, the effect of improved penetration capacity on the efficacy of the substances was investigated.

[23] = tested on: Serratia marcescens SG 621; assay: Microdilution test (MIC)
Description: as §4

[24] = tested on: Klebsiella pneumoniae SG 117; assay: Microdilution test (MIC)
Description: as §4

[25] = tested on: Pseudomonas aeruginosa NCTC 10701; assay: Microdilution test (MIC); conditions: P. aeruginosa NCTC 10701
Description: as §4

[26] = tested on: Pseudomonas aeruginosa SG 137; assay: Microdilution test (MIC); conditions: P. aeruginosa SG 137
Description: as §4

[27] = tested on: Pseudomonas aeruginosa KW 799 WT; assay: Microdilution test (MIC); conditions: P. aeruginosa KW 799/WT
Description: as §4, §5

[28] = tested on: Pseudomonas aeruginosa KW 799/61; assay: Microdilution test (MIC)
Description: as §4, §5

[29] = tested on: Pseudomonas aeruginosa SG 137 (carbenicillin-resistant); assay: Agar diffusion test; conditions: concentration 100 μg/ml; P. aeruginosa SG 137
[30] = tested on: Stenotrophomonas maltophilia IMET 10402; assay: Agar diffusion test; conditions: concentration 100 μg/ml
[31] = tested on: Pseudomonas aeruginosa NCTC 10701; assay: Agar diffusion test; conditions: concentration 100 μg/ml; P. aeruginosa NCTC 10701
[32] = tested on: Salmonella gallinarum ATCC 9184; conditions: concentration 100 μg/ml; Salmonella galinarum ATCC 9184
[33] = tested on: Pseudomonas aeruginosa ATCC 27853; assay: Microdilution test (MIC); conditions: P. aeruginosa ATCC 27853
Description: as §4

E. coli ATCC 25922 = assay: Microdilution test (MIC)
Description: as §4

[34] = tested on: Klebsiella pneumoniae ATCC 10031; assay: Microdilution test (MIC)
Description: as §4

O=C(O)c1cc(O)c(O)c(C=NNC(=O)c2cccc(O)c2O)c1 [Substance 13, 3-formyl-4,5-dihydroxybenzoic Acid-(2,3-dihydroxy-benzhydrazone)]
Growth areas of siderophore indicator strains (diameter) [1]: 11 mm | Growth areas of siderophore indicator strains (diameter) [2]: 23 mm | Growth areas of siderophore indicator strains (diameter) [3]: 23 mm | Growth areas of siderophore indicator strains (diameter) [4]: 24 mm | Growth areas of siderophore indicator strains (diameter) [5]: 23 mm | Growth areas of siderophore indicator strains (diameter) [6]: 18 mm | Growth areas of siderophore indicator strains (diameter) [7]: 10 mm | Growth areas of siderophore indicator strains (diameter) [8]: 15 mm | Growth areas of siderophore indicator strains (diameter) [9]: 10 mm | Growth areas of siderophore indicator strains (diameter) [10]: 10 mm

O=C(O)c1ccc(O)c(N=Cc2cccc(O)c2O)c1 [Substance 3]
Growth areas of siderophore indicator strains (diameter) [1]: 0 mm | Growth areas of siderophore indicator strains (diameter) (E. coli AB 2847): 22 mm | Growth areas of siderophore indicator strains (diameter) [2]: 0 mm | Growth areas of siderophore indicator strains (diameter) [3]: 18 mm | Growth areas of siderophore indicator strains (diameter) [4]: 20 mm | Growth areas of siderophore indicator strains (diameter) [5]: 18 mm | Growth areas of siderophore indicator strains (diameter) [6]: 28 mm | Growth areas of siderophore indicator strains (diameter) [7]: 0 mm | Growth areas of siderophore indicator strains (diameter) [8]: 32 mm | Growth areas of siderophore indicator strains (diameter) [9]: 0 mm | Growth areas of siderophore indicator strains (diameter) [10]: 0 mm

CC(=O)Oc1cccc(C(=O)Nc2ccccc2C(=O)N[C@@H](C(=O)N[C@@H]2C(=O)N3[C@@H]2SC(C)(C)[C@@H]3C(=O)O)c2ccccc2)c1OC(C)=O [Substance 28, N-[2-(2,3-Diacetoxybenzoylamino)-benzoyl]-ampicillin]
inhibition spot diameter in the agar diffusion test [11]: 17 mm | inhibition spot diameter in the agar diffusion test [12]: 27 mm | inhibition spot diameter in agar diffusion test (E. coli mutant KB4 ompF−): 11.5 mm | inhibition spot diameter in agar diffusion test (E. coli mutant KB5 ompC−): 11 mm | inhibition spot diameter in the agar diffusion test [13]: 17 mm | inhibition spot diameter in agar diffusion test [14]: 0 mm | inhibition spot diameter in the agar diffusion test [15]: 20 mm | inhibition spot diameter in the agar diffusion test [16]: 18 mm | inhibition spot diameter in the agar diffusion test [17]: 19 mm | inhibition spot diameter in agar diffusion test [18]: 13 mm | MIC values, microdilution test [19]: 1.56 µg/mL (≈ 2.27 µM) | inhibition spot diameter in the agar diffusion test (E. coli DC0 (wild type)): 23 mm | inhibition spot diameter in agar diffusion test (E. coli AB2847 tonB+): 8.5 mm | inhibition spot diameter in the agar diffusion test [20]: 31 mm | inhibition spot diameter in the agar diffusion test [21]: 27 mm | inhibition spot diameter in the agar diffusion test [22]: 18 mm | MIC values, microdilution test (E. coli DC2): 0.4 µg/mL (≈ 0.581 µM) | MIC values, microdilution test [23]: 6.25 µg/mL (≈ 9.07 µM) | MIC values, microdilution test [24]: 25 µg/mL (≈ 36.3 µM) | MIC values, microdilution test [25]: 0.78 µg/mL (≈ 1.13 µM) | MIC values, microdilution test [26]: 1.56 µg/mL (≈ 2.27 µM) | MIC values, microdilution test [27]: 1.56 µg/mL (≈ 2.27 µM) | MIC values, microdilution test [28]: 0.4 µg/mL (≈ 0.581 µM) | inhibition spot diameter in the agar diffusion test [29]: 20 mm | inhibition spot diameter in the agar diffusion test [30]: 24 mm

CC(=O)Oc1cccc(C(=O)N[C@@H](C)C(=O)N[C@@H](C(=O)N[C@@H]2C(=O)N3[C@@H]2SC(C)(C)[C@@H]3C(=O)O)c2ccccc2)c1OC(C)=O [Substance 27, N-[L-2-(2,3-Diacetoxybenzoylamino)-propionyl]-ampicillin]
inhibition spot diameter in the agar diffusion test [11]: 16 mm | inhibition spot diameter in the agar diffusion test [12]: 30 mm | inhibition spot diameter in the agar diffusion test [31]: 0 mm | inhibition spot diameter in agar diffusion test (E. coli mutant KB4 ompF−): 8.5 mm | inhibition spot diameter in agar diffusion test (E. coli mutant KB5 ompC−): 7.5 mm | inhibition spot diameter in the agar diffusion test [32]: 24 mm | inhibition spot diameter in the agar diffusion test [13]: 17 mm | inhibition spot diameter in agar diffusion test [14]: 1 mm | inhibition spot diameter in the agar diffusion test [15]: 22 mm | inhibition spot diameter in the agar diffusion test [16]: 19 mm | inhibition spot diameter in the agar diffusion test [17]: 12 mm | inhibition spot diameter in agar diffusion test [18]: 14 mm | MIC values, microdilution test [19]: 1.56 µg/mL (≈ 2.43 µM) | inhibition spot diameter in the agar diffusion test (E. coli DC0 (wild type)): 21 mm | inhibition spot diameter in agar diffusion test (E. coli AB2847 tonB+): 7 mm | inhibition spot diameter in the agar diffusion test [20]: 37 mm | inhibition spot diameter in the agar diffusion test [21]: 30 mm | inhibition spot diameter in the agar diffusion test [22]: 10 mm | MIC values, microdilution test (E. coli DC2): 0.4 µg/mL (≈ 0.624 µM) | MIC values, microdilution test [33]: 6.25 µg/mL (≈ 9.76 µM) | MIC values, microdilution test [23]: 50 µg/mL (≈ 78 µM) | MIC values, microdilution test (E. coli ATCC 25922): 6.25 µg/mL (≈ 9.76 µM) | MIC values, microdilution test [34]: 0.4 µg/mL (≈ 0.624 µM) | MIC values, microdilution test [24]: 50 µg/mL (≈ 78 µM) | MIC values, microdilution test [25]: 0.4 µg/mL (≈ 0.624 µM) | MIC values, microdilution test [26]: 3.12 µg/mL (≈ 4.87 µM) | MIC values, microdilution test [27]: 0.78 µg/mL (≈ 1.22 µM) | MIC values, microdilution test [28]: 0.2 µg/mL (≈ 0.312 µM) | inhibition spot diameter in the agar diffusion test [29]: 22 mm | inhibition spot diameter in the agar diffusion test [30]: 29 mm

O=C(O)c1ccc(N=Cc2cccc(O)c2O)c(O)c1 [Substance 5]
Growth areas of siderophore indicator strains (diameter) [1]: 0 mm | Growth areas of siderophore indicator strains (diameter) (E. coli AB 2847): 15 mm | Growth areas of siderophore indicator strains (diameter) [2]: 0 mm | Growth areas of siderophore indicator strains (diameter) [3]: 21 mm | Growth areas of siderophore indicator strains (diameter) [4]: 21 mm | Growth areas of siderophore indicator strains (diameter) [5]: 19 mm | Growth areas of siderophore indicator strains (diameter) [6]: 0 mm | Growth areas of siderophore indicator strains (diameter) [7]: 0 mm | Growth areas of siderophore indicator strains (diameter) [8]: 0 mm | Growth areas of siderophore indicator strains (diameter) [9]: 0 mm | Growth areas of siderophore indicator strains (diameter) [10]: 0 mm

Reference: US6380181B1, “Synthetic catechol derivatives, method for production and use thereof” (priority 1996, dated 2002)
